Reference: US20240327408A1, “COMPOUNDS CONTAINING TETRAHYDRONAPHTHYRIDINONE OR TETRAHYDROPYRIDOPYRIMIDINONE SKELETON, PREPARATION METHOD THEREFOR AND PHARMACEUTICAL USE THEREOF” (CHINA PHARMACEUTICAL UNIVERSITY, priority 2021, published 2024)

Legend:
[1] = biological target: T1, hClpP (Homo sapiens, UniProt Q16740); experiment: activating ClpP hydrolysis of FITC-casein (fluorescence kinetic detection); assay type: biochemical; details: hClpP 1 μM, FITC-Casein 4 μM, 37° C.
T1 construct: made in house
T1 sequence (Q16740 57-277): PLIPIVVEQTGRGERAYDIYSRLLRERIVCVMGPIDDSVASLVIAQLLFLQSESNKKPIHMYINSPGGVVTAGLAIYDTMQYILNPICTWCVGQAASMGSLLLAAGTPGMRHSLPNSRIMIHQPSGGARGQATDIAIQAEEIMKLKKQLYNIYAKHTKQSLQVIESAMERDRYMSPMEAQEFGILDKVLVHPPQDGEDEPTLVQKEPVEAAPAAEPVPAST
Description: The specific procedures were as follows:
Test compounds were each prepared into a 100 mM stock solution in DMSO and stored. and 1 μL of stock solution of each of the compounds was taken and diluted to 10 mM by adding 9 μL of DMSO for later use.
The compounds of formula I of the present invention were each diluted at concentrations of 200 μM, 50 μM, 10 μM, 2 μM, 500 nM, 100 nM, 20 nM, and 2 nM in an assay buffer. 50 μL of each of the compounds at different concentrations was added to each well, with 2 replicate wells.
The protein was diluted to 4 μM in an assay buffer. 25 μL of protein was added to each well, and incubated at 37° C. for 30 min. The final concentration was 1 μM.
25 μL of FITC-Casein was added to each well. The final concentration was 4 μM. The mixture was immediately loaded on the machine for detection.
FITC-Casein and FITC-Casein+ClpP were used as negative controls.
The detection temperature was 37° C. The plate was shaken for 3 s. […] Kinetic parameters were set, and scanning was performed once every 1 min for 15 min.

[2] = system: MV4; 11 cells; experiment: inhibiting the growth of MV4; 11 cells; assay type: cell-based; details: Homo sapiens

SMILES | EC50 [1] | IC50 [2]
O=c1c2c(c3cccnc3n1Cc1ccc3c(c1)OCCO3)CCN(Cc1cccc(Cl)c1)C2 [Compound I-97, 3-(3-chlorobenzyl)-6-((2,3-dihydro[1,4]benzodioxin-6-yl)methyl)-2,3,4,6-tetrahydropyrido[3,4-c][1,8]naphthyridine-5(1H)-one] | 1 to 10 µM | 1 to 10 µM
O=c1c2c(c3cccnc3n1Cc1ccccc1Br)CCN(Cc1ccccc1)C2 [Compound I-42, 3-benzyl-6-(2-bromobenzyl)-2,3,4,6-tetrahydropyrido[3,4-c][1,8]naphthyridine-5-(1H)-one] | 1 to 10 µM | < 1 µM
O=c1c2c(c3scnc3n1Cc1ccc(C(F)(F)F)cc1)CCN(Cc1ccccc1)C2 [Compound I-105, 7-benzyl-4-(4-trifluoromethylbenzyl)-6,7,8,9-tetrahydrothiazolo[4,5-C][2,7]naphthyridine-5(4H)-one] | 1 to 10 µM | 1 to 10 µM
CNc1ccc(Cn2c(=O)c3c(c4cccnc42)CCN(Cc2cccc(C#N)c2)C3)cc1 [Compound I-89, 6-(4-methylaminobenzyl)-3-(3-cyanobenzyl)-2,3,4,6-tetrahydropyrido[3,4-c][1,8]naphthyridine-5-(1H)-one] | 1 to 10 µM | 1 to 10 µM
Cc1ccccc1Cn1c(=O)c2c(n3ccnc13)CCN(Cc1ccccc1)C2 [Compound I-106, 7-benzyl-4-(2-methylbenzyl)-6,7,8,9-tetrahydroimidazo[1,2-a]pyrido[3,4-e]pyrimidine-5(4H)-one] | 1 to 10 µM | 1 to 10 µM
N#Cc1cccc(CN2CCc3c(c(=O)n(Cc4ccc5c(c4)OCO5)c4ncccc34)C2)c1 [Compound I-98, 6-([1,3]benzodioxol-5-ylmethyl)-3-(3-cyanobenzyl)-2,3,4,6-tetrahydropyrido[3,4-c][1,8]naphthyridine-5-(1H)-one] | 1 to 10 µM | 1 to 10 µM
O=c1c2c(n3cncc3n1Cc1ccc(Cl)cc1)CCN(Cc1cccc(Cl)c1)C2 [Compound I-166, 7-(3-chlorobenzyl)-4-(4-chlorobenzyl)-6,7,8,9-tetrahydroimidazo[1,5-a]pyrido[3,4-e]pyrimidine-5(4H)-one] | 1 to 10 µM | 1 to 10 µM
COc1ccc(CN2CCc3c(c(=O)n(Cc4ccccc4)c4ncccc34)C2)cc1 [Compound I-23, 6-benzyl-3-(4-methoxybenzyl)-2,3,4,6-tetrahydropyrido[3,4-c][1,8]naphthyridine-5-(1H)-one] | 1 to 10 µM | < 1 µM
O=c1c2c(c3cccnc3n1Cc1ccccn1)CCN(Cc1ccccc1)C2 [Compound I-61, 3-benzyl-6-(pyridin-2-ylmethyl)-2,3,4,6-tetrahydropyrido[3,4-c][1,8]naphthyridine-5-(1H)-one] | 10 to 100 µM | 1 to 10 µM
O=c1c2c(c3cccnc3n1Cc1ccccc1)CCN(Cc1ccccn1)C2 [Compound I-27, 6-benzyl-3-(pyridin-2-ylmethyl)-2,3,4,6-tetrahydropyrido[3,4-c][1,8]naphthyridine-5-(1H)-one] | 10 to 100 µM | 1 to 10 µM
CCc1ccccc1Cn1c(=O)c2c(c3cccnc31)CCN(Cc1ccccc1)C2 [Compound I-44, 3-benzyl-6-(2-ethylbenzyl)-2,3,4,6-tetrahydropyrido[3,4-c][1,8]naphthyridine-5-(1H)-one] | 1 to 10 µM | < 1 µM
O=c1c2c(c3cccnc3n1Cc1ccccc1)CCN(Cc1ccccc1Br)C2 [Compound I-8, 6-benzyl-3-(2-bromobenzyl)-2,3,4,6-tetrahydropyrido[3,4-c][1,8]naphthyridine-5-(1H)-one] | 1 to 10 µM | < 1 µM
O=c1c2c(c3cccnc3n1Cc1ccccc1)CCN(Cc1cccc(Cl)c1)C2 [Compound I-13, 6-benzyl-3-(3-chlorobenzyl)-2,3,4,6-tetrahydropyrido[3,4-c][1,8]naphthyridine-5-(1H)-one] | < 1 µM | < 1 µM
CCc1ccc(Cn2c(=O)c3c(c4cccnc42)CCN(Cc2cccc(Cl)c2)C3)cc1 [Compound I-96, 6-(4-ethylbenzyl)-3-(3-chlorobenzyl)-2,3,4,6-tetrahydropyrido[3,4-c][1,8]naphthyridine-5-(1H)-one] | < 1 µM | < 1 µM
O=c1c2c(c3cccnc3n1CC1CCCCC1)CCN(Cc1ccccc1)C2 [Compound I-39, 3-benzyl-6-(cyclohexylmethyl)-2,3,4,6-tetrahydropyrido[3,4-c][1,8]naphthyridine-5-(1H)-one] | 10 to 100 µM | 0.91 µM
Cc1ccc(Cn2c(=O)c3c(c4cccnc42)CCN(Cc2cccc(Cl)c2)C3)cc1 [Compound I-92, 6-(4-methylbenzyl)-3-(3-chlorobenzyl)-2,3,4,6-tetrahydropyrido[3,4-c][1,8]naphthyridine-5-(1H)-one] | < 1 µM | < 1 µM
O=c1c2c(n3ncnc3n1Cc1ccc(Cl)cc1)CCN(Cc1cccc(Cl)c1)C2 [Compound I-154, 4-(4-chlorobenzyl)-7-(3-chlorobenzyl)-6,7,8,9-tetrahydropyrido[3,4-e][1,2,4]triazolo[1,5-a]pyrimidine-5(4H)-one] | 1 to 10 µM | 1 to 10 µM
Cc1ncc(CN2CCc3c(c(=O)n(Cc4ccccc4)c4ncccc34)C2)s1 [Compound I-35, 6-benzyl-3-((2-methylthiazol-5-yl)methyl)-2,3,4,6-tetrahydropyrido[3,4-c][1,8]naphthyridine-5-(1H)-one] | 10 to 100 µM | 1 to 10 µM
N#Cc1cccc(CN2CCc3c(c(=O)n(Cc4ccc(C(F)(F)F)cc4)c4ncnn34)C2)c1 [Compound I-151, 4-(4-trifluoromethylbenzyl)-7-(3-cyanobenzyl)-6,7,8,9-tetrahydropyrido[3,4-e][1,2,4]triazolo[1,5-a]pyrimidine-5(4H)-one] | 1 to 10 µM | 1 to 10 µM
O=c1c2c(n3cncc3n1Cc1ccc(C(F)(F)F)cc1)CCN(Cc1ccccc1)C2 [Compound I-164, 7-benzyl-4-(4-trifluoromethylbenzyl)-6,7,8,9-tetrahydroimidazo[1,5-a]pyrido[3,4-e]pyrimidine-5(4H)-one] | 1 to 10 µM | 1 to 10 µM
N#Cc1cccc(CN2CCc3c(c(=O)n(Cc4ccc(Br)cc4)c4ncccc34)C2)c1 [Compound I-86, 6-(4-bromobenzyl)-3-(3-cyanobenzyl)-2,3,4,6-tetrahydropyrido[3,4-c][1,8]naphthyridine-5-(1H)-one] | < 1 µM | < 1 µM
Cc1cccc(CN2CCc3c(c(=O)n(Cc4ccc(C(F)(F)F)cc4)c4nccn34)C2)c1 [Compound I-130, 7-(3-methylbenzyl)-4-(4-trifluoromethylbenzyl)-6,7,8,9-tetrahydroimidazo[1,2-a]pyrido[3,4-e]pyrimidine-5(4H)-one] | < 1 µM | < 1 µM

Continued, values first:

EC50 [1] | IC50 [2] | SMILES
< 1 µM | < 1 µM | O=c1c2c(c3cccnc3n1Cc1ccc(Br)cc1)CCN(Cc1cccc(Br)c1)C2 [Compound I-79, 3-(3-bromobenzyl)-6-(4-bromobenzyl)-2,3,4,6-tetrahydropyrido[3,4-c][1,8]naphthyridine-5-(1H)-one]
< 1 µM | < 1 µM | N#Cc1cccc(CN2CCc3c(c(=O)n(Cc4ccc(Cl)cc4)c4ncccc34)C2)c1 [Compound I-85, 6-(4-chlorobenzyl)-3-(3-cyanobenzyl)-2,3,4,6-tetrahydropyrido[3,4-c][1,8]naphthyridine-5-(1H)-one]
< 1 µM | < 1 µM | O=c1c2c(c3cccnc3n1Cc1ccc(Cl)cc1)CCN(Cc1ccccc1)C2 [Compound I-53, 3-benzyl-6-(4-chlorobenzyl)-2,3,4,6-tetrahydropyrido[3,4-c][1,8]naphthyridine-5-(1H)-one]
< 1 µM | < 1 µM | Cc1cccc(CN2CCc3c(c(=O)n(Cc4ccccc4)c4ncccc34)C2)c1 [Compound I-15, 6-benzyl-3-(3-methylbenzyl)-2,3,4,6-tetrahydropyrido[3,4-c][1,8]naphthyridine-5-(1H)-one]
< 1 µM | < 1 µM | O=c1c2c(n3cccc3n1Cc1ccc(Cl)cc1)CCN(Cc1cccc(Cl)c1)C2 [Compound I-169, 3-(3-chlorobenzyl)-6-(4-chlorobenzyl)-1,2,3,4-tetrahydropyrido[3,4-e]pyrrolo[1,2-a]pyrimidine-5(6H)-one]
< 1 µM | < 1 µM | O=c1c2c(c3cccnc3n1Cc1ccc(Br)cc1)CCN(Cc1cccc(F)c1)C2 [Compound I-77, 3-(3-fluorobenzyl)-6-(4-bromobenzyl)-2,3,4,6-tetrahydropyrido[3,4-c][1,8]naphthyridine-5-(1H)-one]
< 1 µM | < 1 µM | O=c1c2c(n3ccnc3n1Cc1ccc(F)cc1F)CCN(Cc1ccccc1)C2 [Compound I-122, 7-benzyl-4-(2,4-difluorobenzyl)-6,7,8,9-tetrahydroimidazo[1,2-a]pyrido[3,4-e]pyrimidine-5(4H)-one]
< 1 µM | < 1 µM | Cc1ccc(Cn2c(=O)c3c(n4ccnc24)CCN(Cc2cccc(C#N)c2)C3)cc1 [Compound I-136, 7-(3-cyanobenzyl)-4-(4-methylbenzyl)-6,7,8,9-tetrahydroimidazo[1,2-a]pyrido[3,4-e]pyrimidine-5(4H)-one]
< 1 µM | < 1 µM | COc1ccc(Cn2c(=O)c3c(n4ccnc24)CCN(Cc2cccc(F)c2)C3)cc1 [Compound I-143, 7-(3-fluorobenzyl)-4-(4-methoxybenzyl)-6,7,8,9-tetrahydroimidazo[1,2-a]pyrido[3,4-e]pyrimidine-5(4H)-one]
